Patent EP4722228A1, “NEW COMPOUND TARGETING MUSK AND USE THEREOF” (The University of Tokyo, priority 2023, dated 2024)
Numbered stars: 1 amine (or outer) side, 2 acyl side, 3 side chain; on linkers, the order of the positions; unused ones are H or OH. Bridge positions count the residues as written; N and C are the ends. Square brackets hold non-standard residues; d marks the D form. Peptide text beside a SMILES is read from it. I, II: the chains in the order shown. X1 = O=C(CCN1C(=O)CC([*:1])C1=O)NCCOCCOCCOCCOCCOCCOCCOCCOCCOCCOCCOCCNC(=O)CCN1C(=O)CC([*:2])C1=O; X2 = O=C(CCN1C(=O)CC([*:1])C1=O)NCCCOCCOCCOCCCNC(=O)CCN1C(=O)CC([*:2])C1=O

Target: T1, human MuSK (Homo sapiens, UniProt O15146)
T1 construct: DNA corresponding to the extracellular portion (amino acids 1-493) was amplified by a PCR method; made in house; host or cells: Expi293F cells
T1 sequence (O15146 24-493): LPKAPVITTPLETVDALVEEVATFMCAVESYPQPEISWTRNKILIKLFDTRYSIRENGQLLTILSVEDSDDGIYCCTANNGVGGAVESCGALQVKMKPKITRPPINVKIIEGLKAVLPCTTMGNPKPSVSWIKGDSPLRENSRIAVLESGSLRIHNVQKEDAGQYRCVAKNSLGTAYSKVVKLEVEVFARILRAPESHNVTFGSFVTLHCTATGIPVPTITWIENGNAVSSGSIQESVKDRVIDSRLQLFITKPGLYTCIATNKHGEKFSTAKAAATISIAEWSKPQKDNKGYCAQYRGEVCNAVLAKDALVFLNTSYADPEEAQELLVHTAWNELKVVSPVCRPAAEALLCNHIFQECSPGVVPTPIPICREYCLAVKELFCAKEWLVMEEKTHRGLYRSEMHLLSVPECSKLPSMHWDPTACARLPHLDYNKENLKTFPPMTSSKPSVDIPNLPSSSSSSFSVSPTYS
Assay: SPR binding activity test to human MuSK (Biacore)
Details: human MuSK, peptide homodimers
Method: The human MuSK protein (extracellular portion) was prepared as a recombinant protein as follows. Using a Flexi clone (FXC31275, Promega Corporation) encoding Human MuSK isoform 1 precursor (NCBI Reference Sequence: NP_005583.1) as a template, DNA corresponding to the extracellular portion (amino acids 1-493) was amplified by a PCR method. XhoI and EcoRI restriction enzyme recognition sequences were added to both the 5' and 3' ends of the amplified DNA sequence, and these were used for insertion into the multiple cloning site of a pCAG-Neo hIgG1-Fc plasmid (Fujifilm Wako Pure Chemical Corporation). This plasmid (pCAG-Neo hMuSK-Fc) enables expression of a chimeric protein of the secretory human MuSK extracellular portion and human IgG1 Fc (hMuSK-Fc; molecular weight of approximately 200 kDa) in animal cells. In practice, ExpiFectamine 293 reagent (Invitrogen) was used to transfect the pCAG-Neo hMuSK-Fc plasmid into Expi293F cells (Invitrogen), and shaking culture was carried out (for 6 days) in an incubator containing 8% CO2. Next, the culture supernatant was collected, centrifuged, and sterilized by filtration through a 0.22 µm filter. The obtained culture supernatant was subjected to Protein G purification, and finally, a purified hMuSK-Fc sample with 99.96% purity (AKTA-FPLC analysis) was obtained.
The strength of binding between MuSK and the cyclic peptides was evaluated by quantitatively measuring the binding kinetics (binding affinity (dissociation constant) KD) of the cyclic peptides to MuSK immobilized on a sensor chip via an Fc tag, using surface plasmon resonance (SPR).
According to the standard immobilization protocol provided by the manufacturer, Fc-tagged human/mouse/rat MuSK was immobilized on a Protein G chip or a Protein A chip (Cytiva). A running buffer for the monomer/dimer peptides contained 0.010 M phosphate, 0.14 M NaCl, 0.0027 M KCl, 0.05% (v/v) Tween 20, and 0.1% (v/v) DMSO. A running buffer for the monomer/dimer U-bodies contained 0.010 M phosphate, 0.14 M NaCl, 0.0027 M KCl, and 0.05% (v/v) Tween 20. A series of concentrations of each monomer peptide, dimer peptide, monomer U-body, and dimer U-body was injected as analytes. A 1:1 binding fitting analysis was applied using Biacore evaluation software, and ka, kd, and KD values were determined.
Fc-tagged human MuSK was prepared according to the procedure described in Example 1(1). In addition, Fc-tagged mouse MuSK was used by expressing a nucleotide sequence encoding the Fc-tagged mouse MuSK extracellular domain (SEQ ID NO: 34). In addition, Fc-tagged rat MuSK was used as a chimeric protein of rat MuSK and an Fc protein, namely, Recombinant Rat MuSK Fc Chimera Protein (catalog number: 9847-MK-050, R&D Systems).
The affinity of the U-bodies and their complexes obtained as described above for MuSK of human, rat, and mouse was evaluated (binding activity test). The test was carried out according to the procedure described in Example 1(3). However, for the complexes of U-bodies, surface plasmon resonance (SPR) analysis was carried out using a Biacore 8K (Cytiva).

Kd (read-out: Kd)	SMILES	koff	kon
6.9 nM	CC(C)C[C@@H]1NC(=O)[C@H](CC(C)C)NC(=O)[C@H](CO)NC(=O)[C@H](C(C)C)NC(=O)[C@H](C(C)C)NC(=O)[C@H](CC(N)=O)NC(=O)[C@H]([C@@H](C)O)NC(=O)[C@@H]2CCCN2C(=O)[C@H](Cc2ccccc2)NC(=O)[C@@H](Cc2ccc(O)cc2)NC(=O)CSC[C@@H](C(=O)N[C@@H](CSC2CC(=O)N(CCC(=O)NCCOCCOCCOCCOCCOCCOCCOCCOCCOCCOCCOCCNC(=O)CCN3C(=O)CC(SC[C@H](NC(=O)[C@@H]4CSCC(=O)N[C@H](Cc5ccc(O)cc5)C(=O)N[C@@H](Cc5ccccc5)C(=O)N5CCC[C@H]5C(=O)N[C@@H]([C@@H](C)O)C(=O)N[C@@H](CC(N)=O)C(=O)N[C@@H](C(C)C)C(=O)N[C@@H](C(C)C)C(=O)N[C@@H](CO)C(=O)N[C@@H](CC(C)C)C(=O)N[C@@H](CC(C)C)C(=O)N[C@@H](CCCCN)C(=O)N[C@@H](CO)C(=O)N4)C(N)=O)C3=O)C2=O)C(N)=O)NC(=O)[C@H](CO)NC(=O)[C@H](CCCCN)NC1=O (stereo partly shown) [MuSK4 PEG11 dimer] (I: {CH2CO}-[dY]FPTNVVSLLKSCC-NH2 / II: {CH2CO}-[dY]FPTNVVSLLKSCC-NH2; linker I:14-II:14 via X1; thioether I:N-I:13, II:N-II:13)	0.0056 s⁻¹	810000 M⁻¹ s⁻¹
	CC(C)C[C@@H]1NC(=O)[C@H](CO)NC(=O)[C@H](C)NC(=O)[C@H](C(C)C)NC(=O)[C@H](C(C)C)NC(=O)[C@H](CC(N)=O)NC(=O)[C@H]([C@@H](C)O)NC(=O)[C@H](Cc2c[nH]cn2)NC(=O)[C@H](Cc2ccc(O)cc2)NC(=O)[C@H](CO)NC(=O)[C@@H]2CCCN2C(=O)[C@@H](Cc2ccc(O)cc2)NC(=O)CSC[C@@H](C(=O)N[C@@H](CSC2CC(=O)N(CCC(=O)NCCCOCCOCCOCCCNC(=O)CCN3C(=O)CC(SC[C@H](NC(=O)[C@@H]4CSCC(=O)N[C@H](Cc5ccc(O)cc5)C(=O)N5CCC[C@H]5C(=O)N[C@@H](CO)C(=O)N[C@@H](Cc5ccc(O)cc5)C(=O)N[C@@H](Cc5c[nH]cn5)C(=O)N[C@@H]([C@@H](C)O)C(=O)N[C@@H](CC(N)=O)C(=O)N[C@@H](C(C)C)C(=O)N[C@@H](C(C)C)C(=O)N[C@@H](C)C(=O)N[C@@H](CO)C(=O)N[C@@H](CC(C)C)C(=O)N[C@@H](CCCCN)C(=O)N[C@@H](CCCNC(=N)N)C(=O)N4)C(N)=O)C3=O)C2=O)C(N)=O)NC(=O)[C@H](CCCNC(=N)N)NC(=O)[C@H](CCCCN)NC1=O (stereo partly shown) [MuSK7 PEG3 dimer] (I: {CH2CO}-[dY]PSYHTNVVASLKRCC-NH2 / II: {CH2CO}-[dY]PSYHTNVVASLKRCC-NH2; linker I:16-II:16 via X2; thioether I:N-I:15, II:N-II:15)	0.00034 s⁻¹	540000 M⁻¹ s⁻¹
	CC[C@H](C)[C@@H]1NC(=O)[C@H](CC(N)=O)NC(=O)[C@H](C(C)C)NC(=O)[C@H](Cc2ccc(O)cc2)NC(=O)CNC(=O)[C@@H]2CCCN2C(=O)[C@H](CCC(N)=O)NC(=O)[C@H](CC(C)C)NC(=O)[C@H](Cc2ccc(O)cc2)NC(=O)[C@H](Cc2c[nH]c3ccccc23)NC(=O)[C@@H](Cc2ccc(O)cc2)NC(=O)CSC[C@@H](C(=O)N[C@@H](CSC2CC(=O)N(CCC(=O)NCCCOCCOCCOCCCNC(=O)CCN3C(=O)CC(SC[C@H](NC(=O)[C@@H]4CSCC(=O)N[C@H](Cc5ccc(O)cc5)C(=O)N[C@@H](Cc5c[nH]c6ccccc56)C(=O)N[C@@H](Cc5ccc(O)cc5)C(=O)N[C@@H](CC(C)C)C(=O)N[C@@H](CCC(N)=O)C(=O)N5CCC[C@H]5C(=O)NCC(=O)N[C@@H](Cc5ccc(O)cc5)C(=O)N[C@@H](C(C)C)C(=O)N[C@@H](CC(N)=O)C(=O)N[C@@H]([C@@H](C)CC)C(=O)N[C@@H](C(C)C)C(=O)N[C@@H]([C@@H](C)O)C(=O)N[C@@H](CO)C(=O)N[C@@H](Cc5ccc(O)cc5)C(=O)N[C@@H](Cc5c[nH]cn5)C(=O)N4)C(N)=O)C3=O)C2=O)C(N)=O)NC(=O)[C@H](Cc2c[nH]cn2)NC(=O)[C@H](Cc2ccc(O)cc2)NC(=O)[C@H](CO)NC(=O)[C@H]([C@@H](C)O)NC(=O)[C@H](C(C)C)NC1=O (stereo partly shown) [MuSK9 PEG3 dimer] (I: {CH2CO}-[dY]WYLQPGYVNIVTSYHCC-NH2 / II: {CH2CO}-[dY]WYLQPGYVNIVTSYHCC-NH2; linker I:18-II:18 via X2; thioether I:N-I:17, II:N-II:17)	0.0017 s⁻¹	780000 M⁻¹ s⁻¹
